Reference: patent US20260049089A1, “KRAS INHIBITOR COMPOUND” (SHANGHAI APEIRON THERAPEUTICS COMPANY LIMITED, priority 2022, published 2026)

Key:
[1] = molecular target: KRAS G12D GDP protein (His-tag-KRAS G12D) (Homo sapiens (Human), UniProt P01116, G12D); test: AlphaLISA compound screening assay, KRAS-GDP protein format; conditions: AlphaLISA with SOS1, GTP, cRAF, read-out: GDP-format IC50 (nM)/ Binding assay
Experimental: • Buffer 1: Composition and final concentrations: 25 mM HEPES, pH 7.5; 10 mM MgCl2; 0.01% Triton X-100. • Buffer 2: Composition and final concentrations: 25 mM HEPES, pH 7.5; 10 mM MgCl2; 0.01% Triton X-100; 1 mM DTT.
• 4> Use the ECHO555 automated liquid handler to prepare compounds. Test concentrations: The maximum compound concentration is 10 μM or 1 μM, serially diluted 3-fold, with 10 concentrations tested. Each concentration is tested in duplicate, with 0.5% DMSO as the solvent. • 5> High Signal Control Group (High Control): 30 replicates with 0.5% DMSO. KRAS protein is included in the reaction, representing 0% inhibition • 6> Low Signal Control Group (Low Control): 30 replicates with 0.5% DMSO. KRAS protein is not involved in the reaction, representing 100% inhibition
d. KRAS-GDP Protein Assay Procedure • 6> Add 5 μL of KRAS solution prepared with Buffer 1 to each well of the high-signal control group and compound test wells. Add 5 μL of Buffer 1 to each well of the low-signal control group. […] Incubate at room temperature for 1 hour. • 10> Measure the signal values using an EnVision plate reader. […] Incubate at room temperature for 1 hour. • 10> Measure the signal values using an EnVision plate reader. […] Incubate at room temperature for 1 hour. • 10> Measure the signal values using an EnVision plate reader. […]

[2] = molecular target: KRAS G12D GTP protein (His-tag-KRAS G12D) (Homo sapiens (Human), UniProt P01116, G12D); test: AlphaLISA compound screening assay, KRAS-GTP protein format; conditions: AlphaLISA with cRAF, read-out: GTP-format IC50 (nM)/ Binding assay
[3] = molecular target: KRAS G12D GCP protein (His-tag-KRAS G12D) (Homo sapiens (Human), UniProt P01116, G12D); test: AlphaLISA compound screening assay, KRAS-GCP protein format; conditions: AlphaLISA with cRAF, read-out: GCP-format IC50 (nM)/ Binding assay
[4] = system: pERK in AGS cells; test: ERK phosphorylation cell assay, AGS; format: cell-based; conditions: 3 hours compound incubation, read-out: pERK AGS_IC50
Procedure, shortened: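 AGS […] cells, seeded overnight, were treated with compound for 3 hours at 37° C. pERK was detected by in-cell immunofluorescence, with GAPDH as normalizer, using 800CW/680RD secondary antibodies. Mean relative p-ERK levels were fitted against log concentration, with DMSO as negative and 10 μM Reference as positive control.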

[5] = system: pERK in AsPC-1 cells; test: ERK phosphorylation cell assay, AsPC-1; format: cell-based; conditions: AsPC-1 cells; read-out: pERK AsPC-1_IC50
[6] = system: AGS cells; test: 3D cell proliferation assay (CellTiter-Glo 3D), AGS; format: cell-based; conditions: 5 days, read-out: 3D Proliferation Inhibition AGS_IC50
Procedure, shortened: (§1)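 Cells grown with compound as 3D cultures in low-adsorption plates for 5 days at 37° C, 5% CO2. Viability read as ATP luminescence (CellTiter-Glo 3D), normalised to DMSO and medium-only controls; IC50 from non-linear fit of inhibition versus log concentration.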

[7] = system: AsPC-1 cells; test: 3D cell proliferation assay (CellTiter-Glo 3D), AsPC-1; format: cell-based; conditions: 5 days, read-out: 3D Proliferation Inhibition AsPC-1_IC50
Procedure, shortened: as §1

Sequence of KRAS G12D GDP protein (His-tag-KRAS G12D) (P01116-2 other isoform, or with tags, fused parts or gaps G12D): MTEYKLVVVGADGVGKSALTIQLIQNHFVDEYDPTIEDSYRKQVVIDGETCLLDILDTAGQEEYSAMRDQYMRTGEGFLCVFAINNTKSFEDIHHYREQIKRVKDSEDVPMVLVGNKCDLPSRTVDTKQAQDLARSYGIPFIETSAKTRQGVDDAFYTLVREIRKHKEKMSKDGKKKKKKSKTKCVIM
Sequence of KRAS G12D GTP protein (His-tag-KRAS G12D) (P01116-2 other isoform, or with tags, fused parts or gaps G12D): as above
Sequence of KRAS G12D GCP protein (His-tag-KRAS G12D) (P01116-2 other isoform, or with tags, fused parts or gaps G12D): as above

Row | SMILES | IC50 [1] | IC50 [2] | IC50 [3] | IC50 [4] | IC50 [5] | IC50 [6] | IC50 [7]
1 | O=C1CCCCCc2c(F)ccc3cc(O)cc(c23)-c2c(cc3c(N4CC5CCC(C4)N5)nc(OC[C@@]45CCCN4C[C@H](F)C5)nc3c2F)N1 [Example 9B, 12-((1R,5S)-3,8-diazabicyclo[3.2.1]octan-3-yl)-3,16-difluoro-14-(((2R,7aS)-2-fluorotetrahydro-1H-pyrazin-7a(5H)-yl)methoxy)-18-hydroxy-5,6,7,8-tetrahydro-4H-naphtho[1′,8′:4,5,6][1]azacyclododecino[2,3-g]quinazolin-9(10H)-one] | 1.6 nM | 1.95 nM | 58.5 nM | 17 nM | 70 nM | 93 nM | 222 nM
2 | O=C1CCCCCCCCCc2c(F)ccc3cc(O)cc(c23)-c2c(cc3c(N4CC5CCC(C4)N5)nc(OC[C@@]45CCCN4C[C@H](F)C5)nc3c2F)N1 [Example 11, 16-((1R,5S)-3,8-diazabicyclo[3.2.1]octan-3-yl)-3,20-difluoro-18-(((2R,7aS)-2-fluorotetrahydro-1H-pyrazin-7a(5H)-yl)methoxy)-22-hydroxy-5,6,7,8,9,10,11,12-octahydro-4H-naphtho[1′,8′:4,5,61][1]azacyclohexadecano[2,3-g]quinazolin-13(14H)-one] | 500 nM | 726 nM | 909 nM |  |  |  | 
